Results published in patent publication US6919441B2, “Polyamide-oligonucleotide derivatives, their preparation and use” (Aventis Pharma Deutschland GmbH, priority 1995, dated 2005).

Assays:
N-ras RNA = assay: RNase H mediated cleavage of N-ras RNA, cell-free system; assay type: biochemical; settings: RNase H from E. coli
Procedure: The ability to cleave N-ras RNA specifically by PNA-DNA chimera directed against N-ras which can induce RNase H was tested in a cell-free system. First, radioactively labelled N-ras RNA was prepared by in vitro transcription.
The plasmid pMS5-NRAS, which is a derivative of pBluescript II KS (±/−) containing the mutant N-ras sequence (codon 13 GGT→CGT) cloned into XbaI/EcoRI sites, was linearized with EcoR1. After phenol extraction and ethanol precipitation the linear DNA was used as template for in vitro transcription. For transcription, the DNA (5 μg) was incubated in a 100 μl mixture containing 10 mM DTT, 40 mM Tris-HCl pH 7.5, 50 mM NaCl, 8 mM MgCl2, 2 mM spermidine, 500 μM of each rNTP, 80 u RNase-inhibitor, 40 μCi [α-^32P]-(ATP) and 250 u T7 RNA polymerase. After incubation for 1 h at 37° C., the DNA was digested by addition of 25 u DNaseI and further incubation for 30 min at 37° C. After extraction with phenol and chloroform, the aqueous phase was transferred into a Centricon tube and centrifuged at 3410 rpm for 30 min. The RNA was analyzed by PAGE (6% PAA, 8 M urea). For the RNase H cleavage the radioactively labelled N-ras RNA (approximately 0.05 nmol; aqueous solution from above) was hybridized with the PNA-DNA chimera speific for N-ras mRNA (6.5 nmol) by heating to 80° C. and cooling to room temperature. […] The cleavage reactions were analyzed by PAGE (6% PAA, 8 M urea) gel.

TNF-α = assay: Inhibition of TNF-α expression in THP-1 cells (ELISA); assay type: cell-based, human; settings: 0.1-0,5 μM, Cellfectin, PMA/IFNγ stimulation
Procedure: Cell Culture. The human monocytic cell line, THP-1 was grown in RPMI 1640 supplemented with L-glutamine (GIBCO BRL, Life Technologies, Inc.), 10% heat inactivated fetal bovine serum (GIBCO BRL) and penicillin (100 U/ml)/streptomycin (100 μg/ml). The NIH3T3 permanently producing human TNFα was maintained in 10% DMEM.
Enzyme Linked Immunosorbent Assays (ELISA) for TNFα. The TNFα level was quantified using ELISA kit (Cat. #DTA50) obtained from R&D Systems (Minneapolis, Minn.).
Assay Methods. THP-1 cells (3×10^6) were seeded in 48-well plates in 0.2 ml of Opti-MEM (GIBCO) medium. In a 96-well plate, varying concentrations of PNA-DNA chimera (20 μl) were each added to 20 μl of Cellfectin in Opti-MEM (2.4 μl of 1 mg/ml Cellfectin added to 17.6 μl Opti-MEM) and incubated for 15 min at room temperature. The mixture was then added to the cells dropwise. The final concentration of the Cellfectin was 10 μg/ml in 0.24 ml of Opti-MEM. After 4 hours at 37° C., 0.48 ml of 15% RPMI medium was added to each well (This dilution step was added to inactivate the Cellfectin). The final concentration of cells was ˜1×10^6 calls/ml in 10% RPMI. The cells were then stimulated with a combination of 100 ng/ml of PMA and 300 U/ml of IFNγ. […] The supernatants were analyzed for TNFα.

Substance	induction of RNase H mediated cleavage of N-ras RNA (N-ras RNA)	inhibition of TNF-α expression relative to untreated controls (TNF-α)
5′-CCAACA-(Oeg(c))-cgacctgct-hex [Example 57]	able to induce RNase H mediated cleavage	
5′-USCSASGGSUG-(Oeg(t))-cctttgcag-hex [Example 56]		25-35%
